# Experimental data as given in patent publication US11458138B2 (Novartis AG, priority 2017, dated 2022).
# Tests used:
# [1] = test system: YAP phosphorylation in CECs; assay: YAP dephosphorylation in CECs by Western blot; format: cell-based, human; conditions: within one hour of treatment, normalized to beta-actin and total YAP
# Source text: As shown in FIG. 15a by Western blot; FIG. 15b: graph showing phosphorylated YAP levels normalized to beta-actin; and FIG. 15c: graph showing phosphorylated YAP levels normalized to total YAP.
# [2] = test system: Corneal Endothelial Cells (CECs); assay: CEC proliferation, Incucyte confluence by real-time live-cell analysis; format: cell-based, human; conditions: vs vehicle DMSO
# Source text: FIG. 16: CECs grown in presence or absence of LATS inhibitors. An Incucyte system (Essen Biosciences) was used to measure CEC confluence by real-time quantitative live-cell analysis over a time course. Compound ex. 49 (black squares) and ex.
# (§1) If it is desired to measure the cell number or expansion of the cell population, this may be done for example by taking an aliquot and performing immunocytochemistry (e.g. to count nuclei stained with Sytox Orange) or by live cell imaging under brightfield microscope to count the number of cells or by performing real-time quantitative live-cell analysis of cell confluence at various time points during the cell population expansion phase of the method according to the invention.
# [3] = test system: phospho-YAP (ser127) in human LSCs; assay: YAP phosphorylation by western blot in LSCs; format: cell-based; conditions: 10 micromolar, 1 hour
# Method: Cells obtained as described in Example B1 were detached from the culture dish with Accutase for 10 minutes at 37° C., cell suspensions were rinsed by centrifugation and plated in DMEM F12 supplemented with 10% human serum and 1.3 mM calcium chloride in 6-well plates (Corning) and cultured without LATS inhibitor compounds for 2-4 days.
# The medium was then replaced by fresh limbal epithelium cell culture medium (DMEM F12 supplemented with 10% human serum and 1.3 mM calcium chloride) supplemented with LATS inhibitor compound example no. […] Cells were cultured under these conditions for 1 hour at 37° C. in 5% CO2.
# To measure the effect of the LATS inhibitors on the downstream target YAP, the YAP phosphorylation levels were measured by western blot as follows. The cell pellets were obtained by trypsin dissociation and centrifugation and washed with PBS. The pellets were lysed with 30 microlitres of RIPA lysis buffer containing protease inhibitor cocktail (Life Technologies) for 30 minutes, with vortexing every 10 minutes. The cell debris were then pelleted at 4° C. for 15 minutes at 14 k rpm and the protein lysate was collected. Protein concentration was quantified using a micro BCA kit (Pierce). Fifteen micrograms of total protein was loaded in each well of 4-20% TGX gels (BioRad) and Western blotting was performed according to the manufacturer's instructions. […]
# [4] = test system: YAP phosphorylation in limbal stem cells (LSCs); assay: YAP dephosphorylation in LSCs by Western blot; format: cell-based, human; conditions: within one hour of treatment
# [5] = test system: phospho-YAP (ser127) in human CECs; assay: YAP phosphorylation by western blot in CECs; format: cell-based; conditions: 10 micromolar, 1 hour
# Method: Cells obtained as described in Example C1 were detached from the culture dish with 1 mg/ml collagenase for 15 minutes at 37° C., cell suspensions were rinsed by centrifugation and plated in corneal endothelial cell culture medium (human endothelial SF medium (Invitrogen) with human serum) in 6-well plates (Corning) and cultured for 2 to 4 days. The medium was then replaced by fresh corneal endothelial cell culture medium (human endothelial SF medium (Invitrogen) with human serum) supplemented with LATS inhibitor, compound example no. […] Cells were cultured under these conditions for 1 hour at 37° C. in 5% CO2.
# Cell pellets were obtained by trypsin dissociation and centrifugation and washed with PBS. The pellets were lysed with […] of RIPA lysis buffer containing protease inhibitor cocktail (Life Technologies) for 30 minutes, with vortexing every 10 minutes. The cell debris were then pelleted at 4° C. for 15 minutes at 14k rpm and the protein lysate was collected. Protein concentration was quantified using a micro BCA kit (Pierce). Fifteen (15) micrograms of total protein was loaded in each well of 4-20% TGX gels (BioRad) and Western blotting was performed according to the manufacturer's instructions. […] Membranes were stained with HRP-conjugated secondary antibodies, rinsed and imaged using a ChemiDoc system (Biorad) according to the manufacturer's instructions.
# limbal stem cells (LSCs) = assay: LSC population expansion, p63-alpha immunolabelling and cell count; format: cell-based, human; conditions: for LSC colony formation and p63alpha expression: up to 6 days in culture, vs growth medium and DMSO
# Source text: FIG. 2A: In the presence of growth medium and DMSO, only a few isolated cells attach to the culture dish and survive up to 6 days. Most cells expressed the human nuclear marker, but few expressed p63alpha. FIGS. 2B and 2C: In contrast, in the presence of LATS inhibitors: compound example no. 49 and example no. […] FIG. 2D: Passaging cells and culturing them in the presence of LATS inhibitor compound example no.
# as §1
# The Sytox Orange assay may be performed according to standard protocols known in the art. In brief, after cells have attached to the cell culture dish (typically 24 h after cell plating), the cells are fixed in paraformaldehyde. The cells are then permeabilized (e.g. using a solution of 0.3% Triton X-100) and they are then labeled in a solution of Sytox Orange (e.g. using 0.5 micromolar of Sytox Orange in PBS). The number of nuclei stained with Sytox Orange per surface area are then counted under a Zeiss epifluorescence microscope.
# (2) The cell preparation comprises more than 6% p63alpha positive cells. Preferably the cell preparation comprises more than 10%, 20%, 30%, 40%, 50%, 60%, 70%, 80% or 90% p63alpha positive cells. In a preferred embodiment the cell preparation comprises more than 95% p63alpha positive cells. The percentage of p63alpha cells may be measured by immunohistochemistry or FACS.
# [6] = test system: YAP translocation in Corneal Endothelial Cells (CECs); assay: YAP nuclear translocation in Corneal Endothelial Cells (CECs); format: cell-based, human
# YAP in human LSCs = assay: Intracellular YAP distribution in limbal epithelial cells (LSCs); format: cell-based; conditions: 10 micromolar, 24 hours, vs DMSO
# Method: Cells obtained as described in Example B1 were plated in glass-bottom black wall 24-well dishes in limbal epithelium cell culture medium (DMEM F12 supplemented with 10% human serum and 1.3 mM calcium chloride) supplemented with LATS inhibitor compound example no. […] Cells were cultured under these conditions for 24 hours at 37° C. in 5% CO2.
# To measure the effect of the LATS inhibitors on the downstream target YAP, intracellular YAP distribution was analyzed by immunohistochemistry. Cell cultures were fixed with 4% PFA for 20 minutes, permeabilized and blocked in a blocking solution of 0.3% Triton X-100 (Sigma-Aldrich) and 3% donkey serum in PBS for 30 minutes. Cells were then labeled with primary antibody in the blocking solution for 12 hours at 4° C. Primary antibody used was anti-YAP from Santa Cruz Biotechnology. Samples were washed in PBS three times and donkey-raised secondary antibody Alexa Fluor 488 (Molecular Probes) at 1:500 dilution were applied for 30 minutes at room temperature. […] Fluorescence was observed using a Zeiss LSM 880 confocal microscope.
smiles,measurement,setting,value
"CC(C)(O)CC(C)(C)Nc1nc(-c2ccncc2)nc2cnccc12 [Example 49, 2,4-dimethyl-4-{[2-(pyridin-4-yl)pyrido[3,4-d]pyrimidin-4-yl]amino}pentan-2-ol]",YAP dephosphorylation in CECs,[1],induce YAP dephosphorylation
same,CEC proliferation (confluence over time),[2],induced strong CEC proliferation
same,YAP phosphorylation levels in human LSCs (western blot),[3],reduction in YAP phosphorylation levels
same,YAP dephosphorylation in LSCs,[4],induce YAP dephosphorylation
same,YAP phosphorylation levels in human CECs (western blot),[5],reduction in YAP phosphorylation levels in human CECs
same,LSC population expansion after passaging,limbal stem cells (LSCs); passaged cells cultured for two weeks,enabled cell population expansion and the formation of confluent cultures expressing p63alpha
same,LSC colony formation and p63alpha expression,limbal stem cells (LSCs),formed colonies and expressed p63alpha
same,translocation of YAP into the nucleus in CECs,[6],induce translocation of YAP into the nucleus
same,YAP immunostaining in the nucleus of LSCs,YAP in human LSCs,stronger in the nucleus
"Cc1n[nH]cc1-c1nc(NC2(C)CC2)c2ccncc2n1 [Example 133, 2-(3-methyl-1H-pyrazol-4-yl)-N-(1-methylcyclopropyl)pyrido[3,4-d]pyrimidin-4-amine]",YAP dephosphorylation in CECs,[1],induce YAP dephosphorylation
same,CEC proliferation (confluence over time),[2],induced strong CEC proliferation
same,YAP phosphorylation levels in human LSCs (western blot),[3],reduction in YAP phosphorylation levels
same,YAP dephosphorylation in LSCs,[4],induce YAP dephosphorylation
same,YAP phosphorylation levels in human CECs (western blot),[5],reduction in YAP phosphorylation levels in human CECs
same,LSC colony formation and p63alpha expression,limbal stem cells (LSCs),formed colonies and expressed p63alpha
same,translocation of YAP into the nucleus in CECs,[6],induce translocation of YAP into the nucleus
same,YAP immunostaining in the nucleus of LSCs,YAP in human LSCs,stronger in the nucleus
